Laboratory results reported in publication PMC3853768 (Molecular Pain, 2013).
Where “and” joins values, the source holds several entries; their conditions need not be identical. Identical values can stand only once. Entries after “also recorded” stand apart in the source; their conditions may differ. Positions of bridges follow the written chain, without caps; N, C: chain ends. Residues, ends and D or L forms follow the SMILES beside them.

Tests used:
[1] = tested on: CFA-injected mice (C57 Bl6); settings: mouse, in vivo
L-type = assay type: cell-based, mouse
[2] = tested on: P/Q-type channels (Cav2.1); assay type: cell-based, mouse
[3] = tested on: N-type calcium channels with auxiliary subunits; settings: cited from earlier work
patients = settings: in vivo; cited from earlier work

## C[C@@H]1NC(=O)CNC(=O)[C@H](CCCCN)NC(=O)CNC(=O)[C@H](CCCCN)NC(=O)[C@@H](N)CSSC[C@@H]2NC(=O)[C@@H]3CSSC[C@@H](C(N)=O)NC(=O)[C@H](CCCNC(=N)N)NC(=O)CNC(=O)[C@H](CO)NC(=O)[C@H](CCCNC(=N)N)NC(=O)[C@H](CSSC[C@H](NC(=O)[C@H](CO)NC1=O)C(=O)N[C@@H](CCCNC(=N)N)C(=O)N[C@@H](CCCNC(=N)N)C(=O)N[C@@H]([C@@H](C)O)C(=O)N[C@@H](CO)C(=O)N[C@@H](Cc1ccc(O)cc1)C(=O)N[C@@H](CC(=O)O)C(=O)N3)NC(=O)[C@H](CO)NC(=O)CNC(=O)[C@H]([C@@H](C)O)NC2=O [CVIE]
[1]
  reversal of CFA-induced incapacitance (impaired weight bearing): partially reversed impaired weight bearing; also recorded: most effective at reversing mechanical alldoynia; also recorded: significant reversal of incapacitance; also recorded: most effective at reversal of pain; also recorded: reverse signs of inflammatory pain

## COCCOC(=O)C1=C(C)NC(C)=C(C(=O)OC(C)C)C1c1cccc([N+](=O)[O-])c1 (centres unmarked) [nimodipine]
L-type
  inhibition of total ICa (L-type contribution): 5% and 4%

## ω-agatoxin IVA
[2]
  inhibition of total ICa (P/Q-type contribution): approximately 30%

## CSCC[C@@H]1NC(=O)[C@H](CC(C)C)NC(=O)[C@H](CCCCN)NC(=O)[C@H](CO)NC(=O)[C@@H]2CSSC[C@@H]3NC(=O)[C@H](CO)NC(=O)CNC(=O)[C@H](CO)NC(=O)[C@H](CSSC[C@H](N)C(=O)N[C@@H](CCCCN)C(=O)N[C@@H](CO)C(=O)N[C@@H](CCCCN)C(=O)NCC(=O)N[C@@H](C)C(=O)N[C@@H](CCCCN)C(=O)N2)NC(=O)[C@H](CSSC[C@@H](C(N)=O)NC(=O)[C@H](CCCNC(=N)N)NC(=O)CNC(=O)[C@H](C(C)C)NC(=O)[C@H]([C@@H](C)O)NC(=O)CNC(=O)[C@H](CO)NC3=O)NC(=O)[C@H](CC(=O)O)NC(=O)[C@H](Cc2ccc(O)cc2)NC1=O [CVID] (H-CKSKGAKCSKLMYDCCSGSCSGTVGRC-NH2; disulfide 1-16, 8-20, 15-27)
[3]
  affinity for N-type calcium channels in presence of α2δ subunits: significantly reduces the affinity
  recovery from block in presence of α2δ subunits: decreasing recovery from CVID block
[1]
  reversal of CFA-induced incapacitance (impaired weight bearing): partially reversed impaired weight bearing; also recorded: most effective at reversing mechanical alldoynia; also recorded: most effective at reversal of pain; also recorded: reverse signs of inflammatory pain
patients
  side-effect profile of irreversible ω-conotoxins: high side-effect profile

## CC(C)C[C@@H]1NC(=O)[C@H](CCCNC(=N)N)NC(=O)[C@@H]2CSSC[C@@H]3NC(=O)[C@H](CO)NC(=O)[C@H](C)NC(=O)CNC(=O)[C@H](CCCCN)NC(=O)CNC(=O)[C@H](CCCCN)NC(=O)[C@@H](N)CSSC[C@H](NC(=O)[C@H](CSSC[C@@H](C(N)=O)NC(=O)[C@H](CCCNC(=N)N)NC(=O)CNC1=O)NC(=O)[C@H](CC(=O)O)NC(=O)[C@H](Cc1ccc(O)cc1)NC(=O)[C@H](CO)NC(=O)[C@H]([C@@H](C)O)NC(=O)[C@H](CCCNC(=N)N)NC(=O)[C@H](CCCNC(=N)N)NC3=O)C(=O)N[C@@H]([C@@H](C)O)C(=O)NCC(=O)N[C@@H](CO)C(=O)N2 [CVIF] (H-CKGKGASCRRTSYDCCTGSCRLGRC-NH2; disulfide 1-16, 8-20, 15-25)
[1]
  reversal of CFA-induced incapacitance (impaired weight bearing): did not produce significant reversal of incapacitance
